One data set deals with electric eel AChE (Electrophorus electricus, UniProt O42275). The data set can be described thus: biochemical.
The target of data set [1] is horse butyxylcholinesterase (Equus caballus, UniProt P81908). The data set can be described thus: biochemical.
Data set [2] can be described thus: Solubility in water of isolated compounds.

Sequence of electric eel AChE (O42275 24-633): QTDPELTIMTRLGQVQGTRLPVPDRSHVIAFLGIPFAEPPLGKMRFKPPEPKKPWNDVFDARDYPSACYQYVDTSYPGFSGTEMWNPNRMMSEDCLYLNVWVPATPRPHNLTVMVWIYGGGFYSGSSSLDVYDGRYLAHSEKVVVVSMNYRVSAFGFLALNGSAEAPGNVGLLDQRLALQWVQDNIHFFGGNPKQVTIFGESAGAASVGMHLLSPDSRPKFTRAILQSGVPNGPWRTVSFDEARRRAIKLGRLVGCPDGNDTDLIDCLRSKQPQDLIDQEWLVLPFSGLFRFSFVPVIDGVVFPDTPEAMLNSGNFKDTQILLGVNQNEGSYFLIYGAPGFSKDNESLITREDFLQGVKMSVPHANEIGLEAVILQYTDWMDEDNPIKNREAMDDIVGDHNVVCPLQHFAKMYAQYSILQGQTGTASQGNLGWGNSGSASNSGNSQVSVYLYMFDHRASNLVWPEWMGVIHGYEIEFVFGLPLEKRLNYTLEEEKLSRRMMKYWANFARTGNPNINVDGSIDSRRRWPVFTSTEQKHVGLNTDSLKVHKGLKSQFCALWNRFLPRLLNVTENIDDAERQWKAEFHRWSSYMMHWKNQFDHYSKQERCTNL
Sequence of horse butyxylcholinesterase (P81908 whole entry): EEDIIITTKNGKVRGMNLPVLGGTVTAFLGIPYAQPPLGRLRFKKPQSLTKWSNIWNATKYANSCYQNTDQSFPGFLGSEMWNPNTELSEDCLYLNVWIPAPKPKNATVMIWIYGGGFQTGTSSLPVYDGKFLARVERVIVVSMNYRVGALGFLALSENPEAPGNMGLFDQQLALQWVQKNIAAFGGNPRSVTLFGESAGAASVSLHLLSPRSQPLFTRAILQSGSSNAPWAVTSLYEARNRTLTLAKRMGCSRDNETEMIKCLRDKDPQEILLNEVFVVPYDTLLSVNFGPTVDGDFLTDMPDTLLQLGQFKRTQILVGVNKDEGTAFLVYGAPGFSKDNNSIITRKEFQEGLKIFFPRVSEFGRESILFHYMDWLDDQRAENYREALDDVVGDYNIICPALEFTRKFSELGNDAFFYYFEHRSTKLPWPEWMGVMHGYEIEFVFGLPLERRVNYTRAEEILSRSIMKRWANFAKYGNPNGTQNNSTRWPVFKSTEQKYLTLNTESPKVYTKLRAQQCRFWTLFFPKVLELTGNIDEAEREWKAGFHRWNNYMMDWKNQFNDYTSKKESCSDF

With `CC(C)[C@H](C)CC[C@@H](C)[C@H]1CC[C@H]2[C@@H]3CC=C4C[C@@H](O)CC[C@]4(C)[C@H]3CC[C@]12C` [Compound 2, campesterol], the IC50 was 4.72 µM against electric eel AChE and 10.2 µM in data set [1]. Moreover, the Solubility in water result in data set [2] is “Soluble”.

`C=C(C)[C@@H]1CC[C@]2(CO)CC[C@]3(C)[C@H](CC[C@@H]4[C@@]5(C)CC[C@H](O)C(C)(C)[C@@H]5CC[C@]43C)[C@@H]12` [Compound 1, betulin]: the figures for the concentration for half-maximal inhibition (IC50) (against electric eel AChE; in data set [1]) were 1.99 µM and 10.5 µM, respectively.

For the origin of these results see PMC5546590 (Biologics : Targets & Therapy, 2017).
